From PubChem BioAssay AID328 (DTP/NCI, 2004)
Values joined by “and” are separate entries in the source; they are usually repeats but may differ in a detail not shown here. Identical values can stand only once. Inconclusive results and toxic doses are left out. How the source made its calls: active means survival T/C of 150% or more; inactive means T/C below 125% in these data.

System: BDF1 mice, P388 leukemia ip, median survival T/C
Assay: NCI In Vivo Anticancer Drug Screen. Data for tumor model P388 Leukemia (intraperitoneal) in B6D2F1 (BDF1) mice
Conditions: endpoint: median survival time, higher = longer survival
In short: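 T/C = treated-group survival ÷ vehicle-control survival; tumour transplanted into mice before dosing.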

[1] = dose: 50.0 mg/kg/injection, schedule: Q04DX003 (ip), vehicle: saline
[2] = dose: 50.0 mg/kg/injection, schedule: Q01DX009 (ip), vehicle: saline
[3] = dose: 100.0 mg/kg/injection, schedule: Q01DX009 (ip), vehicle: saline
[4] = dose: 100.0 mg/kg/injection, schedule: Q04DX003 (ip), vehicle: Klucel (hydroxypropylcellulose) (HPC)
[5] = dose: 200.0 mg/kg/injection, schedule: Q04DX003 (ip), vehicle: Klucel (hydroxypropylcellulose) (HPC)
[6] = dose: 400.0 mg/kg/injection, schedule: Q04DX003 (ip), vehicle: Klucel (hydroxypropylcellulose) (HPC)
[7] = dose: 12.0 mg/kg/injection, schedule: Q04DX003 (ip), vehicle: Klucel (hydroxypropylcellulose) (HPC)
[8] = dose: 50.0 mg/kg/injection, schedule: Q01DX009 (ip), vehicle: saline with Tween-80
[9] = dose: 200.0 mg/kg/injection, schedule: Q01DX009 (ip), vehicle: saline
[10] = dose: 12.5 mg/kg/injection, schedule: Q04DX003 (ip), vehicle: saline with Tween-80
[11] = dose: 25.0 mg/kg/injection, schedule: Q04DX003 (ip), vehicle: saline with Tween-80

Measured: T/C

CCN(CC)c1cccc(N)c1
inactive: dose: 50.0 mg/kg/injection, schedule: Q01DX009 (sc), vehicle: olive oil, sesame oil, peanut oil 104 % of control | dose: 50.0 mg/kg/injection, schedule: Q04DX003 (sc), vehicle: olive oil, sesame oil, peanut oil 100 % of control | dose: 100.0 mg/kg/injection, schedule: Q01DX009 (sc), vehicle: olive oil, sesame oil, peanut oil 87 % of control | dose: 100.0 mg/kg/injection, schedule: Q04DX003 (sc), vehicle: olive oil, sesame oil, peanut oil 104 % of control | dose: 200.0 mg/kg/injection, schedule: Q04DX003 (sc), vehicle: olive oil, sesame oil, peanut oil 100 % of control

OCCN1CCN(CCCN2c3ccccc3CCc3ccccc32)CC1
inactive: dose: 25.0 mg/kg/injection, schedule: Q04DX003 (ip), vehicle: saline 103 % of control and 117 % of control | [1] 100 % of control and 107 % of control | dose: 100.0 mg/kg/injection, schedule: Q04DX003 (ip), vehicle: saline 115 % of control and 116 % of control

CSc1ncncc1N
inactive: [2] 105 % of control | [3] 105 % of control

COc1c(C(C)(C)C)cc([N+](=O)[O-])c(C)c1[N+](=O)[O-]
inactive: [4] 100 % of control | [5] 100 % of control | [6] 95 % of control

O=[N+]([O-])c1cc(S(=O)(=O)OCC2CO2)ccc1Cl (stereo not given)
inactive: dose: 6.25 mg/kg/injection, schedule: Q01DX009 (ip), vehicle: Klucel (hydroxypropylcellulose) (HPC) 100 % of control | [7] 95 % of control | dose: 12.5 mg/kg/injection, schedule: Q01DX009 (ip), vehicle: Klucel (hydroxypropylcellulose) (HPC) 105 % of control | dose: 25.0 mg/kg/injection, schedule: Q01DX009 (ip), vehicle: Klucel (hydroxypropylcellulose) (HPC) 120 % of control | [4] 108 % of control

C=C(C)Cc1cnc(SCc2ccccc2)[nH]c1=O
inactive: [4] 104 % of control | [5] 109 % of control | [6] 113 % of control

CC(C)N(CC#N)C(C)C
inactive: dose: 0.25 mg/kg/injection, schedule: Q04DX003 (ip), vehicle: saline with Tween-80 91 % of control | dose: 0.5 mg/kg/injection, schedule: Q04DX003 (ip), vehicle: saline with Tween-80 101 % of control

CC(=O)OCC(=O)[C@@]1(O)[C@H](C)C[C@H]2[C@@H]3C=C(C)C4=Cc5c(cnn5-c5ccc(F)cc5)C[C@]4(C)[C@H]3[C@@H](O)C[C@@]21C
inactive: dose: 0.19 mg/kg/injection, schedule: Q01DX009 (sc), vehicle: steriod suspending solution 120 % of control | dose: 0.39 mg/kg/injection, schedule: Q01DX009 (sc), vehicle: steriod suspending solution 110 % of control | dose: 0.58 mg/kg/injection, schedule: Q04DX003 (sc), vehicle: steriod suspending solution 118 % of control | dose: 0.78 mg/kg/injection, schedule: Q01DX009 (sc), vehicle: steriod suspending solution 90 % of control | dose: 1.17 mg/kg/injection, schedule: Q04DX003 (sc), vehicle: steriod suspending solution 118 % of control | dose: 2.34 mg/kg/injection, schedule: Q04DX003 (sc), vehicle: steriod suspending solution 118 % of control | dose: 3.4 mg/kg/injection, schedule: Q04DX003 (sc), vehicle: steriod suspending solution 100 % of control | dose: 5.3 mg/kg/injection, schedule: Q04DX003 (sc), vehicle: steriod suspending solution 90 % of control | dose: 6.0 mg/kg/injection, schedule: Q04DX003 (ip), vehicle: Klucel (hydroxypropylcellulose) (HPC) 105 % of control | [7] 105 % of control | dose: 25.0 mg/kg/injection, schedule: Q04DX003 (ip), vehicle: Klucel (hydroxypropylcellulose) (HPC) 90 % of control | [4] 90 % of control

CC(C)CNC(=S)/N=C1\CCN(c2ccccc2)N1
inactive: dose: 4.5 mg/kg/injection, schedule: Q01DX009 (ip), vehicle: saline with Tween-80 118 % of control | dose: 9.0 mg/kg/injection, schedule: Q01DX009 (ip), vehicle: saline with Tween-80 86 % of control | dose: 18.0 mg/kg/injection, schedule: Q01DX009 (ip), vehicle: saline with Tween-80 92 % of control

O=C1/C(=C/c2ccccc2)Cc2cccc(O)c21
inactive: dose: 37.5 mg/kg/injection, schedule: Q01DX001 (ip), vehicle: saline with Tween-80 100 % of control | dose: 75.0 mg/kg/injection, schedule: Q01DX001 (ip), vehicle: saline with Tween-80 100 % of control | dose: 150.0 mg/kg/injection, schedule: Q01DX001 (ip), vehicle: saline with Tween-80 100 % of control

CC(=O)OCCC/C(=C\c1ccc2ccccc2c1)[N+](=O)[O-]
inactive: dose: 100.0 mg/kg/injection, schedule: Q01DX009 (ip), vehicle: Klucel (hydroxypropylcellulose) (HPC) 118 % of control | dose: 200.0 mg/kg/injection, schedule: Q01DX009 (ip), vehicle: Klucel (hydroxypropylcellulose) (HPC) 122 % of control

NC(N)=Nc1ccc(F)cc1
inactive: [8] 110 % of control | dose: 100.0 mg/kg/injection, schedule: Q01DX009 (ip), vehicle: saline with Tween-80 95 % of control | dose: 200.0 mg/kg/injection, schedule: Q01DX009 (ip), vehicle: saline with Tween-80 90 % of control

CCc1ccc(C(=O)C2CC2)cc1
inactive: dose: 100.0 mg/kg/injection, schedule: Q04DX003 (ip), vehicle: saline with Tween-80 104 % of control | dose: 133.0 mg/kg/injection, schedule: Q01DX008 (ip), vehicle: saline with Tween-80 108 % of control | dose: 200.0 mg/kg/injection, schedule: Q01DX008 (ip), vehicle: saline with Tween-80 116 % of control | dose: 200.0 mg/kg/injection, schedule: Q04DX003 (ip), vehicle: saline with Tween-80 112 % of control | dose: 300.0 mg/kg/injection, schedule: Q01DX008 (ip), vehicle: saline with Tween-80 115 % of control | dose: 400.0 mg/kg/injection, schedule: Q04DX003 (ip), vehicle: saline with Tween-80 104 % of control

CNC(=O)NCCOC(=O)NC
inactive: [9] 100 % of control | dose: 400.0 mg/kg/injection, schedule: Q01DX009 (ip), vehicle: saline 100 % of control

CN(C)P(Cl)(Cc1ccccc1)(c1ccccc1)c1ccccc1
inactive: dose: 3.0 mg/kg/injection, schedule: Q01DX009 (ip), vehicle: saline 108 % of control | dose: 3.0 mg/kg/injection, schedule: Q04DX003 (ip), vehicle: saline 110 % of control | dose: 6.0 mg/kg/injection, schedule: Q01DX009 (ip), vehicle: saline 116 % of control and 122 % of control | dose: 6.0 mg/kg/injection, schedule: Q04DX003 (ip), vehicle: saline 105 % of control | dose: 12.0 mg/kg/injection, schedule: Q04DX003 (ip), vehicle: saline 110 % of control

O.Oc1ccccc1C=NCCC[N-]CCCN=Cc1ccccc1O.[Co]
inactive: [8] 114 % of control

CC(=O)C1=C(O)C2(O)C(=O)c3c(c(C)c4ccc(C)c(O)c4c3O)CC2C(N)C1=O (stereo not given)
inactive: dose: 1.56 mg/kg/injection, schedule: Q01DX009 (ip), vehicle: saline with Tween-80 109 % of control | dose: 3.13 mg/kg/injection, schedule: Q01DX009 (ip), vehicle: saline with Tween-80 104 % of control | dose: 6.25 mg/kg/injection, schedule: Q01DX009 (ip), vehicle: saline with Tween-80 118 % of control

C1CO[Te]2(O1)OCCO2
inactive: [10] 97 % of control | [11] 88 % of control | dose: 50.0 mg/kg/injection, schedule: Q04DX003 (ip), vehicle: saline with Tween-80 88 % of control

CC#CCOCC1CN(C)C(=O)O1 (stereo not given)
inactive: dose: 25.0 mg/kg/injection, schedule: Q01DX009 (ip), vehicle: saline 95 % of control | [2] 100 % of control | [1] 100 % of control | [3] 109 % of control | [9] 95 % of control | dose: 200.0 mg/kg/injection, schedule: Q04DX003 (ip), vehicle: saline 91 % of control | dose: 400.0 mg/kg/injection, schedule: Q04DX003 (ip), vehicle: saline 87 % of control

Nc1nc(-c2cccnc2)cc2ccccc12
inactive: [10] 106 % of control | [11] 91 % of control
